Source: PMC11237012, “Synthesis and preliminary evaluation of novel PET probes for GSK-3 imaging” (Scientific Reports, 2024)

Assay: Radiochemical stability in human serum (rad-TLC)
Format: in vitro ADME
Conditions: 37 °C
Protocol: The stability of PET probes [^18F]2 and [^18F]6 was measured in isotonic NaCl solution (0.9% NaCl) and mouse and human serums at 37 °C for up to 120 min by rad-TLC at 0 min, 30 min, 60 min and 120 min post incubation. The results obtained are presented in Fig. 5 and SI-Figs. S10–S15, SI-Table S1. […] The plausible explanation of the instability of [^18F]6 could be attributed to the covalent interaction of [^18F]6’s SO2F group with primary amines of amino acid residues present in the protein rich mouse and human serums. In fact, in an unrelated study, Zhao et al. reported formation of sulfonamide bond between sulfuryl fluoride and primary amine of conserved lysine residues of different kinases. […] Based on 2’s favorable blood–brain barrier permeability, nanomolar binding affinity and PET probe [^18F]2’s excellent stability in both mouse and human serums, further in vivo evaluations were performed only with PET probe [^18F]2.
Stability of [^18F]2 and [^18F]6 was assessed in isotonic NaCl solution and human and mouse serums. To perform this stability assay, 100 µL of [^18F]2 (~ 37.0 MBq) or 100 µL of [^18F]6 (~ 37.0 MBq) as in final formulation was added to 100 µL of human serum or mouse serum in a microcentrifuge tube. The resultant mixture was incubated at 37 °C for 120 min. To assess the radiochemical stability of the probes, a small aliquot (~ 0.5 µL) was taken out from the mixture in triplicate at 0 min, 30 min, 60 min and 120 min during incubation, and analyzed on a rad-TLC using 0.5:9.5 methanol: chloroform as a mobile phase using i-TLC to estimate the stability of [^18F]2 or [^18F]6 at different time points post-incubation. After Stability preparative processes initial i-TLC development was considered as 0 min.

Measured: Percentage of intact probe

O=C(Nc1cnccc1-c1ccc([18F])cc1)c1ccnc(NC(=O)C2CC2)c1 [[^18F]2]
100 ± 0.0%: 0 min | 30 min | 60 min
